Structures are written as SMILES.

One molecule from patent publication US20080300281A1, “Inhibition of p38 Kinase Activity Using Aryl and Heteroaryl Substituted Heterocyclic Ureas” (priority 1997, published 2008) can be followed below.

The molecule `CC(C)(C)c1cc(NC(=O)Nc2cccc(Cl)c2Cl)c(-c2ccncc2)o1` [Entry 38, N-(2-(4-Pyridinyl)-5-tert-butyl-3-furyl)-N′-(2,3-dichlorophenyl)urea] came in with a melting point of 195 to 198 °C.
